Each block holds one compound with its values, some of them ahead of it. Calls of active or inactive are those of the source.
Assays:
INS1 = experiment: INS-1E survival protection against cytokine death – cell-based, luminescence, retest, dose response (AID 449756); type: functional; settings: Rattus norvegicus;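 note: cell death triggered by IL-1 beta plus TNF-alpha plus IFN-gamma mixture; protective hits raise ATP signal compared with cytokine alone wells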
[1] = molecular target: T1, Heat shock factor protein 1 (Mus musculus, UniProt P38532); experiment: decrease of HSF1-responsive luciferase luminescence – cell-based, NIH3T3, dose retest, confirmation (AID 2382); type: functional;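 note: NIH3T3 fibroblasts with HSF1-driven luciferase reporter stressed by proteasome inhibitor MG132; luminescence from HSF1-driven luciferase expression after 8 hours of MG132 stress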
T1 sequence (P38532 whole entry): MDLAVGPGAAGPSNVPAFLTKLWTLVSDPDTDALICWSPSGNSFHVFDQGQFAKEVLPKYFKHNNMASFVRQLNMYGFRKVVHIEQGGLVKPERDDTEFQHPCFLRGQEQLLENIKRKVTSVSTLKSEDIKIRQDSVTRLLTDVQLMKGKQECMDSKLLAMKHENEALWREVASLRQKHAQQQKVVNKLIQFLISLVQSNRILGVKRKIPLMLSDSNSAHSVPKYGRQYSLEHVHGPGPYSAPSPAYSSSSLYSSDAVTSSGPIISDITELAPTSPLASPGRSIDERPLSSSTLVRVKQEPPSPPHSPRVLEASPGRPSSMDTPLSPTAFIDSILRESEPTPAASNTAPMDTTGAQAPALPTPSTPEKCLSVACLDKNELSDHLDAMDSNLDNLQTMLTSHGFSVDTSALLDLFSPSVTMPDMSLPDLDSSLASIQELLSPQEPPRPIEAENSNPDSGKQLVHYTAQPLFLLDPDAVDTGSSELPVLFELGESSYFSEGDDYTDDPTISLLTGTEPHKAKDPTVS

[2] = molecular target: T2, Corticotropin-releasing factor receptor 2/Corticotropin-releasing factor-binding protein (Homo sapiens, UniProt P24387+Q13324); experiment: Dose Response confirmation of uHTS hits for small molecule antagonists of the CRF-binding protein and CRF-R2 receptor complex.; type: functional; settings: read-out: IC50_Mean
T2 sequence (Q13324 whole entry): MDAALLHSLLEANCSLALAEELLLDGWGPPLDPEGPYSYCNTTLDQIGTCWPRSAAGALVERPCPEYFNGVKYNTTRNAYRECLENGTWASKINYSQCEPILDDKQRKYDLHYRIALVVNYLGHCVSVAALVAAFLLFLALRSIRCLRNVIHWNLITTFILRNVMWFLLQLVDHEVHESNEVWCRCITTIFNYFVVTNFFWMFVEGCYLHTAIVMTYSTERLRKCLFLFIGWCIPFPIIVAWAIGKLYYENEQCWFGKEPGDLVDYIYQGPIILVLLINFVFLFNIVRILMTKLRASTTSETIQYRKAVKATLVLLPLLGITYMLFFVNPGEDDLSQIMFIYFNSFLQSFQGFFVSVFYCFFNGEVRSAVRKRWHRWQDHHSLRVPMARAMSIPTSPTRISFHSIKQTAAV
T2 sequence (P24387 whole entry): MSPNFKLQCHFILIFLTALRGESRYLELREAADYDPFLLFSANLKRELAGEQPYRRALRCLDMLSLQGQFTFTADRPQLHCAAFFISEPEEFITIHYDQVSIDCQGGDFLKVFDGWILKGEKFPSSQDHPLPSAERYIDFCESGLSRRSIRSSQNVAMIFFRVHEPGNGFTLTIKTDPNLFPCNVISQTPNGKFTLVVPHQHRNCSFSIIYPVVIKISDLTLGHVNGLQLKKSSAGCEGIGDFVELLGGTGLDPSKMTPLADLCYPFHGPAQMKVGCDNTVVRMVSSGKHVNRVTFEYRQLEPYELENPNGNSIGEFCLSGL

[3] = molecular target: T2, Corticotropin-releasing factor receptor 2/Corticotropin-releasing factor-binding protein; experiment: activators of CRF receptor 2 with binding protein – uHTS hits, confirmation (AID 602473); type: functional; settings: read-out: EC50_Mean
[4] = molecular target: T3, Rac GTPase-activating protein 1 (Homo sapiens, UniProt Q9H0H5); experiment: blockers of MgcRacGAP-driven Rac1 GTP hydrolysis – biochemical, ADP Hunter fluorescence, primary and confirmatory, confirmation (AID 624330); type: functional
T3 sequence (Q9H0H5 whole entry): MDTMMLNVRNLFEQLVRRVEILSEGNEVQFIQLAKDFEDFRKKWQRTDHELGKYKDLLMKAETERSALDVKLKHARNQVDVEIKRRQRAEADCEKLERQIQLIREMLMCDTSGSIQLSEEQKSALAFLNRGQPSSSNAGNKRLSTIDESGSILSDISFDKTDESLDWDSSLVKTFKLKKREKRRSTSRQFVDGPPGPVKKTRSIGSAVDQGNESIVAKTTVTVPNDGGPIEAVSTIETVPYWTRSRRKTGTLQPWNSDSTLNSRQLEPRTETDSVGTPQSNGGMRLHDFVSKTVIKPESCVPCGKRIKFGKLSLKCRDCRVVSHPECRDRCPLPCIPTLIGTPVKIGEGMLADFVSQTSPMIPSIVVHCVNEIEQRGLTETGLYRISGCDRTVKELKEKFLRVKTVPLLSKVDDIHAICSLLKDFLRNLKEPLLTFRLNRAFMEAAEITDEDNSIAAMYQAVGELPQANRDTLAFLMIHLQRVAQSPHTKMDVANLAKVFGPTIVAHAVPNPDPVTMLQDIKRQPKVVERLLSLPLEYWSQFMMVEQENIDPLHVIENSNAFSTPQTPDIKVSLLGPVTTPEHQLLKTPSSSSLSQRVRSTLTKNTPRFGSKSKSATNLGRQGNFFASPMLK

[5] = Trypanosoma cruzi growth suppression in host cells – NIH3T3 host cells, beta-gal luminescence, confirmation (AID 2044); type: functional, cell-based;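 note: intracellular parasites grown in NIH/3T3 mouse fibroblasts as host cells; luminescent beta-galactosidase reporter signal from transgenic T. cruzi replicating inside host cells; inhibitors lower the luminescence signal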
[6] = NIH3T3 cell viability loss – ATP luminescence, mouse fibroblasts, counter-screen, dose response (AID 2010); type: functional, cell-based;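 note: cells exposed to compound for about 90 hours before reading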
Cytochrome P450 1A2 = molecular target: T4, Cytochrome P450 1A2 (Homo sapiens, UniProt P05177);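 note: PubChem cytochrome P450 panel assay, CYP1A2 panel member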
T4 sequence (P05177 whole entry): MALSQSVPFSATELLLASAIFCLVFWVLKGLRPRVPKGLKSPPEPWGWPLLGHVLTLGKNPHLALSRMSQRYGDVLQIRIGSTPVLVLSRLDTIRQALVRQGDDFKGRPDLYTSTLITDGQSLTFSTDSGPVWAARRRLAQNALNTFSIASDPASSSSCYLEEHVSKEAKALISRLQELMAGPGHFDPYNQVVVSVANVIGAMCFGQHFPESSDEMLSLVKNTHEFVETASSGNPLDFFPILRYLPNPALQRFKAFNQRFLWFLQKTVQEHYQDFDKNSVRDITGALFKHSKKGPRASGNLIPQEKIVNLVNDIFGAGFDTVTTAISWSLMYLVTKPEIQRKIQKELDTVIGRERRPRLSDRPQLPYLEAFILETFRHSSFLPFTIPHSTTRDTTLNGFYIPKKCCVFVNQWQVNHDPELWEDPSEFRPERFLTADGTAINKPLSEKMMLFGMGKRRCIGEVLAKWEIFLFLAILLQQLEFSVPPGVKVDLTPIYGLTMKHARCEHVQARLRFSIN

Cytochrome P450 2C9 = Cytochrome P450 2C9 (Homo sapiens, UniProt P11712)
Chain of Cytochrome P450 2C9 (P11712 whole entry): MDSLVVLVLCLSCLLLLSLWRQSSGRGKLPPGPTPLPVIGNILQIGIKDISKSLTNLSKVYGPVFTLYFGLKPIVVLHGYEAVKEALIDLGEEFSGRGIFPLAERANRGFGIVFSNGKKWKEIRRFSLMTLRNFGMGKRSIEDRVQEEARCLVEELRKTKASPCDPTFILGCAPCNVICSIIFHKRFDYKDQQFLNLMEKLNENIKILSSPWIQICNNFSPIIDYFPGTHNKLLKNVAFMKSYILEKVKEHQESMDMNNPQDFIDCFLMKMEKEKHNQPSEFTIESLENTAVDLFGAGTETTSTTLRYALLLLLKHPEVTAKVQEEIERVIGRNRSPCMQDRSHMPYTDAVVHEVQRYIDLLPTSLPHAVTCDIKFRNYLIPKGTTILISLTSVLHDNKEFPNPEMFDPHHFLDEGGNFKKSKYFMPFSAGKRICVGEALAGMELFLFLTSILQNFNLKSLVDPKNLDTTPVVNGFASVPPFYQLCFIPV

Cytochrome P450 2C19 = Cytochrome P450 2C19 (Homo sapiens, UniProt P33261); experiment: Cytochrome panel assay with activity outcomes. Panel member name: p450-cyp2c19 Compounds with AC50 equal or less than 10 uM are considered active; type: functional; settings: read-out: AC50
Chain of Cytochrome P450 2C19 (P33261 whole entry): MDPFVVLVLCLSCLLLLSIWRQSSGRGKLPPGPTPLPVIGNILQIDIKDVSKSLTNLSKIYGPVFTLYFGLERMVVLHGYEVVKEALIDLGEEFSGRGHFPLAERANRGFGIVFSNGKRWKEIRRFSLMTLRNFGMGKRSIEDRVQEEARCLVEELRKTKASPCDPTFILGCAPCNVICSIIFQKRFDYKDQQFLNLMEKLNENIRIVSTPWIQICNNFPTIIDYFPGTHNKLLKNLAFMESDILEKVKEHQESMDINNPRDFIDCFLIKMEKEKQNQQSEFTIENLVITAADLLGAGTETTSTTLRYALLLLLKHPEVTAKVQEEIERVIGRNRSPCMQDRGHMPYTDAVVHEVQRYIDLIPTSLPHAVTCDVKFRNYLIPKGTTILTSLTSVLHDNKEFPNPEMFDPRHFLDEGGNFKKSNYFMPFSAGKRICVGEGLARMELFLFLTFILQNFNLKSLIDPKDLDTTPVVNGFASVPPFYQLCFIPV

Compound: Cc1ccc2c(c1)N(C)/C(=C/c1cccc[n+]1CCO)S2
- AC50 (INS1): 4.37 µM (active)

Compound: CC(O)CNCCCOc1ccc(Cl)cc1C(C)(C)C (stereo not drawn)
- EC50 [1]: 142 µM (active)

Compound: COc1c(Cl)cc(Cl)cc1CNc1ccc(S(N)(=O)=O)cc1
- IC50 [2]: > 47.1 µM (inactive)
- EC50 [3]: > 53 µM (inactive)

Compound: COc1ccc(-n2cccc2/C=C2/NC(=O)N(c3cccc(Cl)c3)C2=O)cc1
- EC50 [1]: 30.2 µM (active)

Compound: CC(C)n1cc(CN2CCCC(CNS(=O)(=O)c3cccc4cccnc34)C2)cn1 (stereo not drawn)
- EC50 [1]: > 195 µM (not active)
- EC50 [5]: 0.798 µM (active)
- EC50 [6]: > 60 µM (not active)

Compound: COc1ccc(-[n+]2cc(-c3ccccc3)n3c2CCCCC3)cc1
- EC50 [5]: 0.453 µM (active)
- EC50 [6]: > 30 µM (not active)
- AC50 (INS1): 1.66 µM (active)

Compound: CC(C)C[C@H](NC(=O)N1CCCCCC1)C(=O)O
- EC50 [1]: > 195 µM (not active)

Compound: FC(F)(F)c1ccccc1N=C(S)N1CCN(Cc2ccc3c(c2)OCO3)CC1
- AC50 (INS1): 7.02 µM (active)

Compound: N=C(N)Nc1nc(CCN2C(=O)c3ccccc3C2=O)cs1
- AC50 (Cytochrome P450 1A2): 12.6 µM (inconclusive)
- AC50 (Cytochrome P450 2C9): 17.8 µM (inconclusive)

Compound: CC(C)(C)c1ccc(SCCc2cccnc2)cc1
- IC50 [2]: > 47.1 µM (inactive)
- EC50 [3]: > 53 µM (inactive)

Compound: O=C(C1CCN(C2CCN(CC3CC=CCC3)CC2)CC1)N1CCOCC1 (stereo not drawn)
- IC50 [2]: > 47.1 µM (inactive)
- EC50 [3]: > 53 µM (inactive)

Compound: c1cc(CNc2ccc3c(c2)OCCO3)ccn1
- EC50 [1]: 6.77 µM (active)
- IC50 [4]: 108 µM (active)

Compound: COCCNCC(=O)Nc1ccc(C)c(S(=O)(=O)N2CCCCC2)c1
- IC50 [4]: 132 µM (active)

Compound: O=C(Nc1cccc(Cl)c1)N1CCOCC1
- EC50 [1]: > 195 µM (not active)

Compound: CC1CCCN(C(=O)CSc2nnc(-c3ccc(O)cc3)o2)C1 (stereo not drawn)
- EC50 [1]: > 195 µM (not active)

Compound: CCc1nnc(NC(=O)CSc2nc(C3CCCCC3)nc3ccccc23)s1
- AC50 (Cytochrome P450 2C19): 5.01 µM (inconclusive)
- AC50 (Cytochrome P450 2C9): 3.55 µM (inconclusive)

Compound: CC1(C)CC(=O)C(/C=N/c2ccc(N)cc2)=C(O)C1
- IC50 [4]: 46.9 µM (active)

Compound: COc1ccc(C(=O)COC(=O)CCN2C(=O)C3C4CC(C(Br)C4Br)C3C2=O)cc1 (stereo not drawn)
- EC50 [1]: > 195 µM (not active)

Compound: O=C(O)CCCn1c(=S)[nH]c2c(sc3ccc([N+](=O)[O-])cc32)c1=O
- IC50 [4]: 40.3 µM (active)

Compound: COC(=O)c1nc(Cl)c(Cl)c(N)c1Cl
- EC50 [1]: > 195 µM (not active)

Compound: CCc1ccc2nc3sc(C(=O)O)cc3cc2c1
- IC50 [4]: 122 µM (active)

Compound: O=C(Nc1ccc(N2CCN(Cc3ccccc3Cl)CC2)cc1)c1cccnc1
- AC50 (INS1): 4.75 µM (active)

Compound: Cc1[nH]n(CCC#N)c(=O)c1CC(=O)N1CCN(c2ccccc2)CC1
- EC50 [1]: > 195 µM (not active)
- IC50 [2]: > 47.1 µM (inactive)
- EC50 [3]: > 53 µM (inactive)

Compound: COc1ccc(C(=O)N/N=C/c2ccccc2OC(=O)c2ccccc2)cc1
- AC50 (INS1): 2.35 µM (active)

Compound: Cc1ccc(N(CC(=O)Nc2cc(C)cc(C)c2)S(=O)(=O)c2c(C)noc2C)cc1
- AC50 (INS1): 8.43 µM (active)

Compound: Cc1ccc(S(=O)(=O)NC(C)(C)CSc2nncn2N)cc1
- EC50 [1]: > 195 µM (not active)

Other lines, results leading:

- IC50 [2]: > 47.1 µM (inactive)
- EC50 [3]: > 53 µM (inactive)
Compound: CCOC(=O)NC(O)C(=O)c1cccs1 (stereo not drawn)

- IC50 [4]: 118 µM (active)
Compound: O=C(O)CC1SC(Nc2ccc(O)cc2)=NC1=O (stereo not drawn)

- EC50 [1]: > 195 µM (not active)
Compound: CN(C)c1ccc(/C=N/NC(=O)c2cccc(N3CCCC3=O)c2)cc1

- IC50 [4]: 141 µM (active)
Compound: CN(C)CCO/N=C(\c1ccc(Br)cc1)c1cccnc1

- IC50 [2]: > 47.1 µM (inactive)
- EC50 [3]: > 53 µM (inactive)
Compound: Cc1ccc(S(=O)(=O)N(CC(=O)NCc2ccco2)Cc2ccccc2F)cc1

- IC50 [4]: 99.7 µM (active)
Compound: O=C(c1cccc(Cl)c1)N1CCN(Cc2ccncc2)CC1

- IC50 [4]: 49.6 µM (active)
Compound: CCOC(=O)c1nc(S)n(Cc2ccccc2)c1C(=O)OCC

- IC50 [4]: 48.5 µM (active)
Compound: COc1cc(/C=N/n2c(C)nc3ccccc3c2=O)ccc1O

- IC50 [2]: > 47.1 µM (inactive)
- EC50 [3]: > 53 µM (inactive)
Compound: COc1ccc(S(=O)(=O)N2CCCCCC2)cc1C(=O)NCCc1ccccc1

- IC50 [2]: > 47.1 µM (inactive)
- EC50 [3]: > 53 µM (inactive)
Compound: NS(=O)(=O)c1ccc(NC(S)=Nc2ccc(F)c(F)c2)cc1

- IC50 [2]: > 47.1 µM (inactive)
- EC50 [3]: > 53 µM (inactive)
Compound: Cc1ccc(NC(S)=NCc2ccccn2)cc1

- AC50 (Cytochrome P450 2C19): 31.6 µM (inconclusive)
- AC50 (Cytochrome P450 2C9): 0.562 µM (inconclusive)
Compound: O=C(Nc1ccccc1)N1CCOCC1

- EC50 [1]: > 195 µM (not active)
Compound: CC(=O)Nc1cc[n+](C(C)C(=O)c2ccccc2)cc1 (stereo not drawn)

- IC50 [2]: > 47.1 µM (inactive)
- EC50 [3]: > 53 µM (inactive)
Compound: Cc1nn(C)c(Oc2ccc(Cl)cc2)c1C(=O)O

- IC50 [4]: 146 µM (active)
Compound: COc1ccc(NC2CCCN(C(=O)c3ccccc3-c3ncc[nH]3)C2)cc1 (stereo not drawn)

- EC50 [1]: > 195 µM (not active)
Compound: COc1cccc(C2CC(c3ccccc3)n3ncnc3N2)c1 (stereo not drawn)

- AC50 (Cytochrome P450 1A2): 15.8 µM (inconclusive)
- AC50 (Cytochrome P450 2C9): 12.6 µM (inconclusive)
Compound: COc1cccc(Cn2c(=O)c(-c3cn(C)c4ccccc34)nc3cnc(OC)nc32)c1

Reference: ChEMBL document CHEMBL1201862, “PubChem BioAssay data set” (2004)
